Test results taken from ChEMBL document CHEMBL5036340 (Eur J Med Chem, 2021).
The source made the active and inactive calls. The calls are words filed in the database; no cut-off is given here.

Legend:
Butyrylcholinesterase = Butyrylcholinesterase (Rattus norvegicus, UniProt Q9JKC1)
Description: Inhibition of rat serum BChE using butyrylthiocholine iodide as substrate by Ellman's method

in vitro = details: rat, HepG2 cells
Description: Ratio of IC50 for cytotoxicity against human HepG2 cells to ratio of IC50 for inhibition of rat cortex AChE

Acetylcholinesterase = target: T1, Acetylcholinesterase (Rattus norvegicus, UniProt P37136); assay: Inhibition of rat cortex AChE using acetylthiocholine iodide as substrate by Ellman's method
T1 sequence (P37136 whole entry): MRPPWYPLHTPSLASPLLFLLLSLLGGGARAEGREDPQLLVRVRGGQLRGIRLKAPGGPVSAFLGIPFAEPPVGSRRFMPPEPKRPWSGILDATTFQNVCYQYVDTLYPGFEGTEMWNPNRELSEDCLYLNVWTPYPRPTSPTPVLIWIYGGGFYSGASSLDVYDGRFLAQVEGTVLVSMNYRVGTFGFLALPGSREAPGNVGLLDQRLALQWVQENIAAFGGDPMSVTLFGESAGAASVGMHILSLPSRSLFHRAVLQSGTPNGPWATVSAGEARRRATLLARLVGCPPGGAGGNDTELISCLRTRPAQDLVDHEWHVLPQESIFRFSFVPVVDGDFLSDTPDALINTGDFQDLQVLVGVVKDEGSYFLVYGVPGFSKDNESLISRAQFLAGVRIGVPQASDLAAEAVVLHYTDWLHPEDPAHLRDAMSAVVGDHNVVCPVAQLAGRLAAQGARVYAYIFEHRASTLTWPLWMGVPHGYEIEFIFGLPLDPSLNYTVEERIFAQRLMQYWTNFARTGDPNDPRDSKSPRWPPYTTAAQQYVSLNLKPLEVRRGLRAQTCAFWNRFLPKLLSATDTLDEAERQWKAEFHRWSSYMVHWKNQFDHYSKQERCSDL

HepG2 = assay: cells; format: functional, cell-based; details: Homo sapiens, HepG2, 24 h
Description: Cytotoxicity against human HepG2 cells assessed as reduction in cell viability incubated for 24 hrs by MTT assay

[1] = target: Voltage-gated inwardly rectifying potassium channel KCNH2 (Homo sapiens, UniProt Q12809)
Description: Inhibition of hERG expressed in CHO-K1 cells assessed as reduction in thallium influx incubated for 30 minutes by FLIPR

[2] = Terminal half life in C57BL/6 mouse plasma at 10 mg/kg, po administered as single dose measured upto 24 hrs by UPLC analysis; format: ADME, organism-based; details: read-out: beta t1/2 (converted)
Mus musculus = species on record: Mus musculus; assay: Anti-alzheimer activity in C57BL/6 mouse assessed as decrease in pirenzepine induced LTP at 1 microM pretreated for 90 mins and further incubated with pirenzepine for 30 mins followed by high frequency stimulation by electrophysiological recording; format: functional, organism-based; details: time 120.0 min
[3] = AUC (0 to t) in C57BL/6 mouse plasma at 10 mg/kg, po administered as single dose measured upto 24 hrs by UPLC analysis; format: ADME, organism-based; set-up: route oral, dose 10 mg/kg, time <=24; details: in vivo
Hippocampus = assay: Anti-alzheimer activity in theta-burst stimulated C57BL/6 mouse hippocampus CA3 region assessed as enhancement of synaptic strength by measuring long term potentiation in brain slice at 3 mg/kg, po for 4 days by electrophysiological recording relative to control; format: functional, organism-based; details: time 4.0 day
[4] = Terminal half life in C57BL/6 mouse kidney at 10 mg/kg, po administered as single dose by UPLC analysis; format: ADME, organism-based; details: read-out: beta t1/2 (converted)
[5] = Terminal half life in C57BL/6 mouse liver at 10 mg/kg, po administered as single dose by UPLC analysis; format: ADME, organism-based; details: read-out: beta t1/2 (converted)
[6] = Cmax in C57BL/6 mouse liver at 10 mg/kg, po administered as single dose measured at 1.75 hrs by UPLC analysis; format: ADME, organism-based; set-up: route oral, time 1.75 hrs, dose 10 mg/kg
[7] = MRT (0 to infinity) in C57BL/6 mouse kidney at 10 mg/kg, po administered as single dose by UPLC analysis; format: ADME, organism-based
[8] = Tmax in C57BL/6 mouse liver at 10 mg/kg, po administered as single dose by UPLC analysis; format: ADME, organism-based
[9] = Tmax in C57BL/6 mouse plasma at 10 mg/kg, po administered as single dose measured upto 24 hrs by UPLC analysis; format: ADME, organism-based
[10] = Drug concentration in C57BL/6 mouse muscle at 10 mg/kg, po administered as single dose by UPLC analysis; format: ADME, organism-based, Muscle tissue; details: in vivo
[11] = Tmax in C57BL/6 mouse kidney at 10 mg/kg, po administered as single dose by UPLC analysis; format: ADME, organism-based
[12] = Terminal half life in C57BL/6 mouse brain at 10 mg/kg, po administered as single dose measured upto 24 hrs by UPLC analysis; format: ADME, organism-based; details: read-out: beta t1/2 (converted)
[13] = MRT (0 to infinity) in C57BL/6 mouse plasma at 10 mg/kg, po administered as single dose measured upto 24 hrs by UPLC analysis; format: ADME, organism-based
[14] = Cmax in C57BL/6 mouse brain at 10 mg/kg, po administered as single dose measured at […] by UPLC analysis; format: ADME, organism-based
[15] = target: T2, Acetylcholinesterase (Rattus norvegicus) (UniProt P37136); assay: Mixed-type inhibition of rat cortex AChE at 0.5 to 1.5 nM using varying levels of acetylthiocholine iodide as substrate measured at 5 minutes by Ellman's method based Lineweaver-Burk plot analysis; details: dose 0.5-1.5 nM
T2 sequence (whole entry): T1 sequence (P37136 whole entry)

[16] = Tmax in C57BL/6 mouse brain at 10 mg/kg, po administered as single dose measured upto 24 hrs by UPLC analysis; format: ADME, organism-based
[17] = AUC (0 to infinity) in C57BL/6 mouse liver at 10 mg/kg, po administered as single dose by UPLC analysis; format: ADME, organism-based; set-up: time infinity, route oral, dose 10 mg/kg; details: in vivo
[18] = AUC (0 to infinity) in C57BL/6 mouse plasma at 10 mg/kg, po administered as single dose measured upto 24 hrs by UPLC analysis; format: ADME, organism-based; set-up: route oral, dose 10 mg/kg, time <=24; details: in vivo
[19] = MRT (0 to infinity) in C57BL/6 mouse brain at 10 mg/kg, po administered as single dose measured upto 24 hrs by UPLC analysis; format: ADME, organism-based
[20] = Cmax in C57BL/6 mouse kidney at 10 mg/kg, po administered as single dose measured at 2.50 hrs by UPLC analysis; format: ADME, organism-based; set-up: route oral, time 2.5 hrs, dose 10 mg/kg
[21] = AUC (0 to infinity) in C57BL/6 mouse kidney at 10 mg/kg, po administered as single dose by UPLC analysis; format: ADME, organism-based; set-up: route oral, time infinity, dose 10 mg/kg; details: in vivo
[22] = AUC (0 to infinity) in C57BL/6 mouse brain at 10 mg/kg, po administered as single dose measured upto 24 hrs by UPLC analysis; format: ADME, organism-based; set-up: route oral, dose 10 mg/kg, time <=24; details: in vivo
[23] = Cmax in C57BL/6 mouse plasma at 10 mg/kg, po administered as single dose measured at 2.25 hrs by UPLC analysis; format: ADME, organism-based; set-up: route oral, dose 10 mg/kg, time 2.25 hrs
[24] = MRT (0 to infinity) in C57BL/6 mouse liver at 10 mg/kg, po administered as single dose by UPLC analysis; format: ADME, organism-based

Voltage-gated inwardly rectifying potassium channel KCNH2, sequence (Q12809 whole entry): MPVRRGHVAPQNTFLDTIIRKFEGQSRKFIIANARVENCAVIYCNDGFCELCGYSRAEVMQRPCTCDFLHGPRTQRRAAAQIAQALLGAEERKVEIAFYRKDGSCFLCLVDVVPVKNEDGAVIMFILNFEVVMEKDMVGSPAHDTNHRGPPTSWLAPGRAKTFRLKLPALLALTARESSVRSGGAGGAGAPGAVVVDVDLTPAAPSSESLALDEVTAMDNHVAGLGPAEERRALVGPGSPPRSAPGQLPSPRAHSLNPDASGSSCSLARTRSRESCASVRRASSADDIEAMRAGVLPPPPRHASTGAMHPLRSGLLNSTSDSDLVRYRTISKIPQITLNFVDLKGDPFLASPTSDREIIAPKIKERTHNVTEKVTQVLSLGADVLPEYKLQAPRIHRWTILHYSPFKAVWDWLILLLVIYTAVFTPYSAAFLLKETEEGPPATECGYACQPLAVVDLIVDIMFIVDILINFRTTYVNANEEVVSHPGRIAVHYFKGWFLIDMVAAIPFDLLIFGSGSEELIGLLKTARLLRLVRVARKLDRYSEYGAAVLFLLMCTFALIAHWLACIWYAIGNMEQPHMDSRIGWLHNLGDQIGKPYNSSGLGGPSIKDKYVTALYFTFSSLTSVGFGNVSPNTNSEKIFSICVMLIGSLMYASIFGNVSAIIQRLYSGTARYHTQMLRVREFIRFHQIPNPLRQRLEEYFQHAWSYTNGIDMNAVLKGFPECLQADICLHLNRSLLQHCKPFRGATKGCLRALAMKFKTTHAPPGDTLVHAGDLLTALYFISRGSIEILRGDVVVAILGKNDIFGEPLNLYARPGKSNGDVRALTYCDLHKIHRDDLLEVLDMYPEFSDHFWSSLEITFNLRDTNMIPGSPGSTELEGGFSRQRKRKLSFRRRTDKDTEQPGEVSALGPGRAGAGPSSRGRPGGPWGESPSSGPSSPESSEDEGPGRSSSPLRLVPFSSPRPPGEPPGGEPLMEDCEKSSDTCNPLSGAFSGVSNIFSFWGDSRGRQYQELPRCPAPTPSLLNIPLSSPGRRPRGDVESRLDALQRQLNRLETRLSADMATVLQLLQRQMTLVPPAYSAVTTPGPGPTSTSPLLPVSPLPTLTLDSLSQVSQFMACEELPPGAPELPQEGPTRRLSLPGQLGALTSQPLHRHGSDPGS
Butyrylcholinesterase, sequence (Q9JKC1 whole entry): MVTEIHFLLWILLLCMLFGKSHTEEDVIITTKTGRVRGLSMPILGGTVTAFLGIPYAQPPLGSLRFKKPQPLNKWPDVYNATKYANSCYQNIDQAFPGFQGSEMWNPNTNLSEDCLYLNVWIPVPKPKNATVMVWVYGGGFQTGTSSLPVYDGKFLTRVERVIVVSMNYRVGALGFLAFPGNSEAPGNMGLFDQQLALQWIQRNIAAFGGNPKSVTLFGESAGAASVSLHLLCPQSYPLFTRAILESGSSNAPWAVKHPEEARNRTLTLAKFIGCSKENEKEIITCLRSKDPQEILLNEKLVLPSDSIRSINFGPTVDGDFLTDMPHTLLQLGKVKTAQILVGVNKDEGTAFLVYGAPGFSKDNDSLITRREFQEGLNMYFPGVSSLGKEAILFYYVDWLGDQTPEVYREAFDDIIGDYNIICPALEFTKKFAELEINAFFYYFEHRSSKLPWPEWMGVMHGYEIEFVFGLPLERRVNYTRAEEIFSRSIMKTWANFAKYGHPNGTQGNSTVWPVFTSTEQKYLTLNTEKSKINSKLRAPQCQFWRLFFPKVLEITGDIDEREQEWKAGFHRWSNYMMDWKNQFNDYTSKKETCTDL

For `O=c1ccc2c([nH]1)CCC(NCCCCCCCNc1c3c(nc4cc(Cl)ccc14)CCCC3)C2` (configuration not stated), the IC50 (Butyrylcholinesterase) was 893 nM, the selectivity ratio (in vitro) was 2660 and the IC50 (Acetylcholinesterase) was 14.8 nM. The IC50 (HepG2) was 39200 nM and the IC50 [1] was 6360 nM.

For `O=c1ccc2c([nH]1)CCC(NCCCCCCCCCNc1c3c(nc4cc(Cl)ccc14)CCCC3)C2` (configuration not stated), the IC50 (Butyrylcholinesterase) was 1080 nM, the IC50 (Acetylcholinesterase) was 29.1 nM and the IC50 (HepG2) was 35500 nM.

Compound `O=c1ccc2c([nH]1)CCC(NCCNc1c3c(nc4cc(Cl)ccc14)CCCC3)C2` (configuration not stated) has an IC50 (Butyrylcholinesterase) of 401 nM, a selectivity ratio (in vitro) of 12100 and an IC50 (Acetylcholinesterase) of 17.7 nM. The IC50 (HepG2) was 214000 nM and the IC50 [1] was 2410 nM.

`O=c1ccc2c([nH]1)CCC(NCCCCCCNc1c3c(nc4cc(Cl)ccc14)CCCC3)C2` (configuration not stated) showed an IC50 (Butyrylcholinesterase) of 574 nM, a selectivity ratio (in vitro) of 8520 and an IC50 (Acetylcholinesterase) of 6.02 nM. It also gave an IC50 (HepG2) of 51300 nM and an IC50 [1] of 11600 nM.

`O=c1ccc2c([nH]1)CCC(NCCCCCCCCCCNc1c3c(nc4cc(Cl)ccc14)CCCC3)C2` (configuration not stated) gave an IC50 (Butyrylcholinesterase) of 3780 nM, a selectivity ratio (in vitro) of 260 and an IC50 (Acetylcholinesterase) of 66 nM. The IC50 (HepG2) was 17200 nM and the IC50 [1] was 2770 nM.

For `COc1cc2c(cc1OC)C(=O)C(CC1CCN(Cc3ccccc3)CC1)C2` (configuration not stated) [DONEPEZIL], the IC50 (HepG2) was 263000 nM.

`O=c1ccc2c([nH]1)CCC(NCCCCCCCCNc1c3c(nc4cc(Cl)ccc14)CCCC3)C2` (configuration not stated) gave an IC50 (Butyrylcholinesterase) of 1360 nM, a selectivity ratio (in vitro) of 3340 and an IC50 (Acetylcholinesterase) of 12.7 nM. The IC50 (HepG2) was 42600 nM and the IC50 [1] was 2190 nM.

`O=c1ccc2c([nH]1)CCC(NCCCCNc1c3c(nc4cc(Cl)ccc14)CCCC3)C2` (configuration not stated) gave an IC50 (Butyrylcholinesterase) of 347 nM, an IC50 (Acetylcholinesterase) of 2.94 nM and an IC50 (HepG2) of 110000 nM.

With `O=c1ccc2c([nH]1)CCC(NCCCNc1c3c(nc4cc(Cl)ccc14)CCCC3)C2` (configuration not stated) the IC50 (Butyrylcholinesterase) was 200 nM, the half-life [2] was 7.89 h and the Activity (Mus musculus) was “Active”. The AUCt [3] was 246 ng·h/mL, the Activity (Hippocampus) was “Active” and the selectivity ratio (in vitro) was 119000. The IC50 (Acetylcholinesterase) was 0.9 nM, the half-life [4] was 7.49 h and the half-life [5] was 7.16 h. For the same compound, the Cmax [6] was 148 ng/mL, the MRT inf [7] was 11.1 h and the Tmax [8] was 1.75 h. For the same compound, the Tmax [9] was 2.25 h, the Drug uptake [10] was “Not Active” and the Tmax [11] was 2.5 h. The half-life [12] was 7.8 h, the IC50 (HepG2) was 107000 nM and the MRT inf [13] was 10.8 h. For the same compound, the IC50 [1] was 8980 nM, the Cmax at […] [14] was 4.02 ng/mL and the inhibition [15] was “Active”. It also gave a Tmax [16] of 2.75 h, an AUC [17] of 534.14 g/h and an AUC [18] of 279 ng·h/mL. It also gave an MRT inf [19] of 11.1 h, a Cmax [20] of 165 ng/mL and an AUC [21] of 1124.93 g/h. The AUC [22] was 21.86 g/h, the Cmax [23] was 68.3 ng/mL and the MRT inf [24] was 8.39 h.

`O=c1ccc2c([nH]1)CCC(NCCCCCNc1c3c(nc4cc(Cl)ccc14)CCCC3)C2` (configuration not stated) showed an IC50 (Butyrylcholinesterase) of 503 nM, a selectivity ratio (in vitro) of 8340 and an IC50 (Acetylcholinesterase) of 5.66 nM. It also gave an IC50 (HepG2) of 47200 nM and an IC50 [1] of 7660 nM.
